Reference: patent publication US20210368788A1, “METHODS FOR USING ANTIMICROBIAL COMPOSITIONS” (Next Science IP Holdings Pty Ltd, priority 2016, published 2021)

Assay: Testing of lysozyme amount for efficacy (method not described)
Details: 0.08 g lysozyme per kg of composition

In the case of lysozyme, the “lowest amount exhibiting some efficacy” value is reported as 80 ppm.
